The structures appear in SMILES notation.

This data set is described as follows: UPLC/MS detection of schizadrin B in blood plasma after administration of strengthening body resistance and dissipating blood stasis botanical. The class given is in vivo. The conditions noted are these: plasma of mammals after drenching with the botanical; FIG. 1: rat plasma 0.5 hours after administration; ethyl acetate extraction, UPLC/MS positive ion mode. On the procedure:
Detection method of blood plasma schizadrin B of strengthening body resistance and dissipating blood stasis botanical includes the following steps: • (1) Pretreatment of mammalian plasma samples • a. Mammal plasma containing drugs after being administered the strengthening body resistance and dissipating blood stasis botanical was extracted with ethyl acetate at the volume ratio of 1:4, whirling for 3 to 5 min, then centrifuging at 9600 rpm for 10 min; and drying and enriching the supernatant under the condition of 25 to 30° C.; • b. Redissolve eluent with mobile phase and then analyze it with UPLC/MS; • (2) UPLC/MS detection
UPLC condition: chromatographic column: ACQUITY UPLC BEH C18 (a type of chromatographic column), 2.1×100 mm, mobile phase A: Water-Acetonitrile-Formic acid 95:5:0.1 v/v/v, mobile phase B: Acetonitrile-Formic acid 100:0.1 v/v; MS condition: electrospray ionization (ESI) ion source, detection with positive ion mode, scanning at the range of m/z 150 to 1200.
The described step (2) detects with the positive ion mode; the desolvation gas flow is 440 L/h, the desolvation gas temperature is 300° C., the cone gas flow is 50 L/h, the ion source temperature is 100° C., the spray capillary voltage is 3800 V, the sampling cone voltage is 30V, the extracting cone voltage is 2.00 V, the lens voltage is 0.1 V, and the mass scanning at the range of m/z 150 to 1200.
1. […]

As to `COc1cc2c(c(OC)c1OC)-c1c(cc3c(c1OC)OCO3)CC(C)C(C)C2` (stereo not shown) [Schizadrin B], the “detection of schizadrin B in blood plasma” value was “can be detected”.

Source of the values: patent US7989212B2, “Detection of blood plasma schizadrin B of dissipating blood stasis botanical” (Shanghai Sundise, priority 2007, dated 2011).
